Test results as given in patent US8192962B2, “Processes for detecting toxic substances” (Daikin Industries, Ltd., priority 2001, dated 2012).

Test system: Genes belonging to other category
Assay: DNA chip mRNA expression in yeast, genes belonging to other category (Table 9)
Format: cell-based, Saccharomyces cerevisiae S288C
In short: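 Whole-genome yeast DNA chip hybridization (65° C., >12 h) of Cy-labeled cDNA from S288C cells exposed 2 h at 25° C. to a sub-lethal toxicant dose in YPD; value is intensity relative to chemical-free control.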

## CCCCCCCCCCCCOS(=O)(=O)[O-].[Na+] [(18), sodium lauryl sulfate]
Yeast gene YDR392W
  The level of expressed mRNA in the presence of chemical substance/The level of expressed mRNA in the absence of chemical substance: 1.2
Yeast gene YDR403W
  The level of expressed mRNA in the presence of chemical substance/The level of expressed mRNA in the absence of chemical substance: 1.0
Yeast gene YDR432W
  The level of expressed mRNA in the presence of chemical substance/The level of expressed mRNA in the absence of chemical substance: 0.7
Yeast gene YDR481C
  The level of expressed mRNA in the presence of chemical substance/The level of expressed mRNA in the absence of chemical substance: 1.4
Yeast gene YDR510W
  The level of expressed mRNA in the presence of chemical substance/The level of expressed mRNA in the absence of chemical substance: 1.5
Yeast gene YEL042W
  The level of expressed mRNA in the presence of chemical substance/The level of expressed mRNA in the absence of chemical substance: 0.8
Yeast gene YEL066W
  The level of expressed mRNA in the presence of chemical substance/The level of expressed mRNA in the absence of chemical substance: 1.1
Yeast gene YER039C
  The level of expressed mRNA in the presence of chemical substance/The level of expressed mRNA in the absence of chemical substance: 1.1
Yeast gene YER066W
  The level of expressed mRNA in the presence of chemical substance/The level of expressed mRNA in the absence of chemical substance: 1.1
Yeast gene YER107C
  The level of expressed mRNA in the presence of chemical substance/The level of expressed mRNA in the absence of chemical substance: 1.2
Yeast gene YER130C
  The level of expressed mRNA in the presence of chemical substance/The level of expressed mRNA in the absence of chemical substance: 2.5
Yeast gene YFL022C
  The level of expressed mRNA in the presence of chemical substance/The level of expressed mRNA in the absence of chemical substance: 0.8
Yeast gene YFL028C
  The level of expressed mRNA in the presence of chemical substance/The level of expressed mRNA in the absence of chemical substance: 1.5
Yeast gene YFL029C
  The level of expressed mRNA in the presence of chemical substance/The level of expressed mRNA in the absence of chemical substance: 1.4
Yeast gene YFL043C
  The level of expressed mRNA in the presence of chemical substance/The level of expressed mRNA in the absence of chemical substance: 1.2
Yeast gene YFR004W
  The level of expressed mRNA in the presence of chemical substance/The level of expressed mRNA in the absence of chemical substance: 1.4
Yeast gene YFR014C
  The level of expressed mRNA in the presence of chemical substance/The level of expressed mRNA in the absence of chemical substance: 2.9
Yeast gene YFR050C
  The level of expressed mRNA in the presence of chemical substance/The level of expressed mRNA in the absence of chemical substance: 1.7
Yeast gene YGL093W
  The level of expressed mRNA in the presence of chemical substance/The level of expressed mRNA in the absence of chemical substance: 1.2
Yeast gene YGL094C
  The level of expressed mRNA in the presence of chemical substance/The level of expressed mRNA in the absence of chemical substance: 0.9
Yeast gene YGL141W
  The level of expressed mRNA in the presence of chemical substance/The level of expressed mRNA in the absence of chemical substance: 1.2
Yeast gene YGL150C
  The level of expressed mRNA in the presence of chemical substance/The level of expressed mRNA in the absence of chemical substance: 0.8
Yeast gene YGL158W
  The level of expressed mRNA in the presence of chemical substance/The level of expressed mRNA in the absence of chemical substance: 1.1
Yeast gene YGL166W
  The level of expressed mRNA in the presence of chemical substance/The level of expressed mRNA in the absence of chemical substance: 1.9
Yeast gene YGL207W
  The level of expressed mRNA in the presence of chemical substance/The level of expressed mRNA in the absence of chemical substance: 0.8
Yeast gene YGL229C
  The level of expressed mRNA in the presence of chemical substance/The level of expressed mRNA in the absence of chemical substance: 0.9
Yeast gene YGR036C
  The level of expressed mRNA in the presence of chemical substance/The level of expressed mRNA in the absence of chemical substance: 1.1
Yeast gene YGR048W
  The level of expressed mRNA in the presence of chemical substance/The level of expressed mRNA in the absence of chemical substance: 1.2
Yeast gene YGR135W
  The level of expressed mRNA in the presence of chemical substance/The level of expressed mRNA in the absence of chemical substance: 1.9
Yeast gene YGR136W
  The level of expressed mRNA in the presence of chemical substance/The level of expressed mRNA in the absence of chemical substance: 1.8
Yeast gene YGR186W
  The level of expressed mRNA in the presence of chemical substance/The level of expressed mRNA in the absence of chemical substance: 1.2
Yeast gene YGR189C
  The level of expressed mRNA in the presence of chemical substance/The level of expressed mRNA in the absence of chemical substance: 1.7
Yeast gene YGR213C
  The level of expressed mRNA in the presence of chemical substance/The level of expressed mRNA in the absence of chemical substance: 8.5
Yeast gene YGR232W
  The level of expressed mRNA in the presence of chemical substance/The level of expressed mRNA in the absence of chemical substance: 1.2
Yeast gene YGR257C
  The level of expressed mRNA in the presence of chemical substance/The level of expressed mRNA in the absence of chemical substance: 1.3
Yeast gene YHL024W
  The level of expressed mRNA in the presence of chemical substance/The level of expressed mRNA in the absence of chemical substance: 1.4
Yeast gene YHR004C
  The level of expressed mRNA in the presence of chemical substance/The level of expressed mRNA in the absence of chemical substance: 1.6
Yeast gene YHR027C
  The level of expressed mRNA in the presence of chemical substance/The level of expressed mRNA in the absence of chemical substance: 1.0
Yeast gene YHR071W
  The level of expressed mRNA in the presence of chemical substance/The level of expressed mRNA in the absence of chemical substance: 1.0
Yeast gene YHR139C
  The level of expressed mRNA in the presence of chemical substance/The level of expressed mRNA in the absence of chemical substance: 1.3
Yeast gene YHR142W
  The level of expressed mRNA in the presence of chemical substance/The level of expressed mRNA in the absence of chemical substance: 1.3
Yeast gene YHR163W
  The level of expressed mRNA in the presence of chemical substance/The level of expressed mRNA in the absence of chemical substance: 1.2
Yeast gene YIL050W
  The level of expressed mRNA in the presence of chemical substance/The level of expressed mRNA in the absence of chemical substance: 1.1
Yeast gene YIL076W
  The level of expressed mRNA in the presence of chemical substance/The level of expressed mRNA in the absence of chemical substance: 2.5
Yeast gene YIL123W
  The level of expressed mRNA in the presence of chemical substance/The level of expressed mRNA in the absence of chemical substance: 1.0
Yeast gene YIL140W
  The level of expressed mRNA in the presence of chemical substance/The level of expressed mRNA in the absence of chemical substance: 1.0
Yeast gene YIL142W
  The level of expressed mRNA in the presence of chemical substance/The level of expressed mRNA in the absence of chemical substance: 0.8
Yeast gene YIR039C
  The level of expressed mRNA in the presence of chemical substance/The level of expressed mRNA in the absence of chemical substance: 1.1
